Read-outs that look alike come from different tables or passages of the source.
Assays:
[1] = molecular target: PPAR delta (Homo sapiens (Human), UniProt Q03181); assay: PPARδ activity screen: GAL4-PPARδ LBD transactivation luciferase reporter in CV-1 cells; assay type: cell-based
Procedure: CV-1 cells were grown in DMEM+10% charcoal stripped FCS. Cells were seeded into 384-well plates the day before transfection to give a confluency of 50-80% at transfection. A total of […] containing 0.64 micrograms pCMX-PPARDelta LBD, 0.1 micrograms pCMXβGal, 0.08 micrograms pGLMH2004 reporter and 0.02 micrograms pCMX empty vector was transfected per well using FuGene transfection reagent according to the manufacturer's instructions (Roche). Cells were allowed to express protein for 48 h followed by addition of compound.
Human PPARδ was used to PCR amplify the PPARδ LBD. […] Ensuing fusions were verified by sequencing.
All compounds were dissolved in DMSO and diluted 1:1000 upon addition to the cells. Compounds were tested in quadruple in concentrations ranging from 0.001 to 100 μM. Cells were treated with compound for 24 h followed by luciferase assay. Each compound was tested in at least two separate experiments.
Medium including test compound was aspirated and washed with PBS. 50 μl PBS including 1 mM Mg++ and Ca++ were then added to each well. The luciferase assay was performed using the LucLite kit according to the manufacturer's instructions (Packard Instruments). Light emission was quantified by counting on a Perkin Elmer Envision reader. […] Beta-galactosidase assays were performed in the microwell plates using a kit from Promega and read in a Perkin Elmer Envision reader. The beta-galactosidase data were used to normalize (transfection efficiency, cell growth etc.) the luciferase data.
The activity of a compound is calculated as fold induction compared to an untreated sample. For each compound the efficacy (maximal activity) is given as a relative activity compared to GW501516, a PPARδ agonist. […] EC50 values were calculated via non-linear regression usingGraphPad PRISM (GraphPad Software, San Diego, Calif.).

[2] = Pharmacokinetic (PK) screening (i.v.) in male CD1 mice; assay type: in vivo, mouse; settings: for clearance: male, CD1, mouse, plasma, iv
Procedure: In this example, the intravenous PK profile of several PPARδ agonists disclosed herein in male CD1 mice was determined. Similar methods can be used to analyze other compounds provided herein. All compounds were administered separately to CD1 mice at 1 mg/kg (i.v.), except the comparator compound to 2c was administered at 3 mg/kg (i.v.), as noted below.

[3] = test system: Sprague-Dawley rat acute kidney injury; assay: Ischemia-reperfusion kidney injury in rats, plasma creatinine; assay type: in vivo; settings: 30 mg/kg orally 4 hours after surgery, blood 24 hours after reperfusion, FIG. 11
Procedure: Sprague-Dawley male rats approximately 280-300 g, with ad libitum access to standard feed and water were used in these experiments. Rats were anesthetized with isoflurane and placed ventrally on a temperature controlled heated surgical platform. A skin incision was made on the dorsal surface, exposing both kidneys through flank incisions. Vascular clips were applied to both renal pedicles and occlusion lasted 45 minutes. After 45 min, the clips were removed, kidneys were monitored for successful reperfusion, and surgical sites were sutured. The sham group was subjected to similar surgical procedures, except that the occluding clamps were not applied. Four independent studies, testing each compound were performed. Compounds were formulated as a fresh daily suspension in 0.25% sodium carboxymethyl-cellulose, 0.25% Tween-80 in purified water. Compounds were dosed orally at 30 mg/kg 4 hours after animals awoke from surgery and sham surgery and IRI control animals were similarly dosed with vehicle.
Twenty-four (24) hours after reperfusion, blood was collected in K2 EDTA tubes by retro-orbital bleeding from all groups under mild isoflurane anesthesia. Plasma was separated by centrifugation at 3000 rpm for 10 minutes at 4° C. Plasma creatinine was analyzed using a fully automated clinical biochemistry analyzer (Siemens Dimension® Xpand® Plus Integrated Chemistry System)
Creatinine was tested for normal distribution in all groups via a D'Agostino-Pearson omnibus normality test and a Shapiro-Wilk normality test. Normally distributed data was subjected to an unpaired, two-tailed t test. Non-normally distributed data was subjected to a Mann-Whitney test (non-parametric). Statistical significance is determined by p<0.05 of IRI-vehicle compared to compound treated groups.

[4] = CV-1 cells, 24 h compound treatment, luciferase, read-out: PPAR delta transactivation EC50
[5] = 1 mg/kg, I.V. 1 mg/kg dose, read-out: CL
[6] = 1 mg/kg, I.V. 1 mg/kg dose, read-out: High or Low CL

PPAR delta, sequence (Q03181 128-441 limits assumed): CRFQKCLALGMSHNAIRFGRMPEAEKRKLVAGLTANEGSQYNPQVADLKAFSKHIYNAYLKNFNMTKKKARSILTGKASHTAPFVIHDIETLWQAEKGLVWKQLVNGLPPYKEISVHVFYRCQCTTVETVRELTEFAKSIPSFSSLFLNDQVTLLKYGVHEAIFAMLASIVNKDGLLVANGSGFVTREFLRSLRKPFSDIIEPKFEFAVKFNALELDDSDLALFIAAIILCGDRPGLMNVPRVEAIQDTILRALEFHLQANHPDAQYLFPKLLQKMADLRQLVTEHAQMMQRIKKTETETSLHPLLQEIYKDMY

clearance [2, 5] [mL/min/kg] | clearance [2, 6] [mL/min/kg] | Compound | EC50 [1, 4] [nM] | also measured
17 | < 85 | Cc1cnc(-c2ccc(C(F)(F)F)cc2)n1Cc1cc(F)ccc1OCCC[C@@H](C)CC(=O)O [Compound 2k, (R)-6-(4-fluoro-2-((5-methyl-2-(4-(trifluoromethyl)phenyl)-1H-imidazol-1-yl)methyl)phenoxy)-3-methylhexanoic acid] | 6.6 | –
– | – | CSc1ccc(-c2ncc(C)n2Cc2ccccc2OCCC[C@@H](C)CC(=O)O)cc1 [Compound 2p, (R)-3-methyl-6-(2-((5-methyl-2-(4-(methylthio)phenyl)-1H-imidazol-1-yl)methyl)phenoxy)hexanoic acid] | 13.1 | –
– | – | Cc1cnc(-c2ccc(F)cc2)n1Cc1ccccc1OCCC[C@@H](C)CC(=O)O [Compound 2g, (R)-6-(2-((2-(4-fluorophenyl)-5-methyl-1H-imidazol-1-yl)methyl)phenoxy)-3-methylhexanoic acid] | 39 | –
– | – | Cc1cnc(-c2ccc(OC(F)F)cc2)n1Cc1ccccc1OCCC[C@@H](C)CC(=O)O [Compound 2l, (R)-6-(2-((2-(4-(difluoromethoxy)phenyl)-5-methyl-1H-imidazol-1-yl)methyl)phenoxy)-3-methylhexanoic acid] | 13.5 | –
62 | < 85 | Cc1cnc(-c2ccc(C(F)(F)F)nc2)n1Cc1ccccc1OCCC[C@@H](C)CC(=O)O [Compound 2n, (R)-3-methyl-6-(2-((5-methyl-2-(6-(trifluoromethyl)pyridin-3-yl)-1H-imidazol-1-yl)methyl)phenoxy)hexanoic acid] | – | Plasma creatinine [3]: reduce plasma creatinine
– | – | Cc1cnc(-c2ccc(C(F)(F)F)nc2)n1Cc1ccccc1OCCCCCC(=O)O [Comparator Compound 2, reference compound] | 3.8 | –
– | – | Cc1cnc(-c2ccc(C(F)(F)F)cc2)n1Cc1ccccc1OCCCCCC(=O)O [comparator compound to 2d, reference compound] | – | CL / exposure after i.v. dose (result in words) ([2]; I.V. 1 mg/kg dose): Due to low exposure data could not be measured
85 | < 85 | Cc1ccc(OCCC[C@@H](C)CC(=O)O)c(Cn2c(C)cnc2-c2ccc(OC(F)(F)F)cc2)c1 [Compound 2m, (R)-3-methyl-6-(4-methyl-2-((5-methyl-2-(4-(trifluoromethoxy)phenyl)-1H-imidazol-1-yl)methyl)phenoxy)hexanoic acid] | 0.5 | –
– | – | Cc1cnc(-c2ccc(C(F)(F)F)nc2)n1Cc1ccccc1OCCCCCC(=O)O [comparator compound to 2n, reference compound] | – | CL / exposure after i.v. dose (result in words) ([2]; I.V. 1 mg/kg dose): Due to low exposure data could not be measured
– | – | Cc1cnc(-c2ccc(Cl)c(F)c2)n1Cc1ccccc1OCCCCC(C)(C)C(=O)O [Compound 2i, 6-(2-((2-(4-chloro-3-fluorophenyl)-5-methyl-1H-imidazol-1-yl)methyl)-phenoxy)-2,2-dimethylhexanoic acid] | 18.8 | –
– | – | Cc1cnc(-c2ccc(C(F)F)cc2)n1Cc1ccccc1OCCC[C@@H](C)CC(=O)O [Compound 2o, (R)-6-(2-((2-(4-(difluoromethyl)phenyl)-5-methyl-1H-imidazol-1-yl)methyl)phenoxy)-3-methylhexanoic acid] | 9.9 | –
22 | < 85 | Cc1cnc(-c2ccc(Cl)cc2)n1Cc1ccccc1OCCC[C@@H](C)CC(=O)O [Compound 2b, (R)-6-(2-((2-(4-chlorophenyl)-5-methyl-1H-imidazol-1-yl)methyl)phenoxy)-3-methylhexanoic acid] | – | EC50 [1]: 7.8 nM
– | – | Cc1cnc(-c2ccc(C(F)(F)F)cc2)n1Cc1ccccc1OCCCCCC(=O)O [Comparator Compound 1, reference compound] | 0.1 | –
33 | < 85 | Cc1cnc(-c2ccc(OC(F)(F)F)cc2)n1Cc1ccccc1OCCC[C@@H](C)CC(=O)O [Compound 2a, (R)-3-methyl-6-(2-((5-methyl-2-(4-(trifluoromethoxy)phenyl)-1H-imidazol-1-yl)methyl)phenoxy)hexanoic acid] | – | EC50 [1]: 1 nM; Plasma creatinine [3]: reduce plasma creatinine
– | – | Cc1ccc(-c2ncc(C)n2Cc2ccccc2OCCC[C@@H](C)CC(=O)O)cc1 [Compound 2f, (R)-3-methyl-6-(2-((5-methyl-2-(p-tolyl)-1H-imidazol-1-yl)methyl)phenoxy) hexanoic acid] | – | EC50 [1]: 24.3 nM
185 | > 85 | Cc1cnc(-c2ccc(OC(F)(F)F)cc2)n1Cc1ccccc1OCCCCCC(=O)O [comparator compound to 2e, reference compound] | – | –
– | – | Cc1cnc(-c2ccc(-c3ccco3)cc2)n1Cc1ccccc1OCCCCCC(=O)O [comparator compound to 2c, reference compound] | – | clearance ([2]; 3 mg/kg, 3 mg/kg i.v. dose, read-out: CL): 270 mL/min/kg; clearance ([2]; 3 mg/kg, 3 mg/kg i.v. dose, read-out: High or Low CL): > 85 mL/min/kg

Compound | clearance [2, 5] [mL/min/kg] | clearance [2, 6] [mL/min/kg] | EC50 [1, 4] [nM] | also measured
Cc1cnc(-c2ccc(-c3ccco3)cc2)n1Cc1ccccc1OCCC[C@@H](C)CC(=O)O [Compound 2c, (R)-6-(2-((2-(4-(furan-2-yl)phenyl)-5-methyl-1H-imidazol-1-yl)methyl)phenoxy)-3-methylhexanoic acid] | 73 | < 85 | 3.7 | –
Cc1cnc(-c2ccc(Cl)c(F)c2)n1Cc1ccccc1OCCC[C@@H](C)CC(=O)O [Compound 2j, (R)-6-(2-((2-(4-chloro-3-fluorophenyl)-5-methyl-1H-imidazol-1-yl)methyl)phenoxy)-3-methylhexanoic acid] | 38 | < 85 | 0.8 | –
C/C(=C\COc1ccccc1Cn1c(C)cnc1-c1ccc(OC(F)(F)F)cc1)CCC(=O)O [Compound 2e, (E)-4-methyl-6-(2-((5-methyl-2-(4-(trifluoromethoxy)phenyl)-1H-imidazol-1-yl)methyl)phenoxy)hex-4-enoic acid] | 70 | < 85 | 0.2 | –
Cc1cnc(-c2ccc(C(F)(F)F)c(F)c2)n1Cc1ccccc1OCCCCC(C)(C)C(=O)O [Compound 2h, 6-(2-((2-(3-fluoro-4-(trifluoromethyl)phenyl)-5-methyl-1H-imidazol-1-yl)methyl)phenoxy)-2,2-dimethylhexanoic acid] | 25 | < 85 | 3.5 | –
Cc1cnc(-c2ccc(C(F)(F)F)cc2)n1Cc1ccccc1OCCCCC(C)(C)C(=O)O [Compound 2q, 2,2-dimethyl-6-(2-((5-methyl-2-(4-(trifluoromethyl)phenyl)-1H-imidazol-1-yl)methyl)phenoxy)hexanoic acid] | 11 | < 85 | 14.3 | –

From patent US10399958B2, “PPAR agonists, compounds, pharmaceutical compositions, and methods of use thereof” (Mitobridge, Inc., priority 2015, dated 2019)
